Laboratory results as given in paper PMC6748385 (Toxicology and applied pharmacology, 2019).
Read-outs that look alike come from different tables or passages of the source.

Assays:
Assay in all cases: ERE-luciferase transactivation, HELN-zfER cells
Assay type in all cases: cell-based
[1] = biological target: zfERβ2 (Esr2a) (Danio rerio, UniProt Q7ZU32)
[2] = biological target: T1, zfERβ1 (Esr2b) (Danio rerio, UniProt Q5PR29)
T1 sequence (Q5PR29 1-592): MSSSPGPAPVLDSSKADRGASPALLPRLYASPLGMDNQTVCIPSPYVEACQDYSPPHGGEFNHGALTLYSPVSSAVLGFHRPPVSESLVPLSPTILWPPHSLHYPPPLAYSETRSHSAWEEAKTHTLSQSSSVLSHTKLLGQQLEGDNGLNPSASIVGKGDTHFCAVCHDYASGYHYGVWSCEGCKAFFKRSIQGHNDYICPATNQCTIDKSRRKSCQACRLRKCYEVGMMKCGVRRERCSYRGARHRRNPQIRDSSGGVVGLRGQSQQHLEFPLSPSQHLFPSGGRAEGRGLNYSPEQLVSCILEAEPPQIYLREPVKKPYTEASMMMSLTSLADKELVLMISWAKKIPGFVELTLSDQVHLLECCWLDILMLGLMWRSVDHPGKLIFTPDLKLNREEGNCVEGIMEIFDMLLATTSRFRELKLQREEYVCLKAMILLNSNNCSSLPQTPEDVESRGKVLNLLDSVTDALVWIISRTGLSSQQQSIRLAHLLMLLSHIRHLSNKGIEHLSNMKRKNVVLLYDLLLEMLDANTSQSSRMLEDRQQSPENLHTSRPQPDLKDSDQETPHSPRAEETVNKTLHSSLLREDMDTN

[3] = biological target: T2, zfERα (Esr1) (Danio rerio, UniProt P57717)
T2 sequence (P57717 1-569): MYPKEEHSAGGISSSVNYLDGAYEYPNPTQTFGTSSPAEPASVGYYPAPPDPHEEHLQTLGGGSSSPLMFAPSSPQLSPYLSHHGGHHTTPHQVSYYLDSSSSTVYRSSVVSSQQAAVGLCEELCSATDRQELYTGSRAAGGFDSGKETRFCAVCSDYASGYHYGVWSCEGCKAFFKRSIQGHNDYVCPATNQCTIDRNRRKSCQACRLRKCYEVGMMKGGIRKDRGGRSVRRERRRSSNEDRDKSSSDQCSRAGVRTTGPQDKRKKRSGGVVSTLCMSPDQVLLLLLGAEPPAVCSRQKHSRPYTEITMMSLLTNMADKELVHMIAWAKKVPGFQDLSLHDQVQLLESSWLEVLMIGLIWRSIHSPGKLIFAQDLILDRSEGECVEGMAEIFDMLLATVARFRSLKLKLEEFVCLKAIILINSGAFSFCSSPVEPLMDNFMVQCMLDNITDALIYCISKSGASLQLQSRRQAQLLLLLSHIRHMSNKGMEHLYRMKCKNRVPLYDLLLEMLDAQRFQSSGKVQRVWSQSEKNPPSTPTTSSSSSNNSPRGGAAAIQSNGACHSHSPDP

Sequence of zfERβ2 (Esr2a) (Q7ZU32 1-553): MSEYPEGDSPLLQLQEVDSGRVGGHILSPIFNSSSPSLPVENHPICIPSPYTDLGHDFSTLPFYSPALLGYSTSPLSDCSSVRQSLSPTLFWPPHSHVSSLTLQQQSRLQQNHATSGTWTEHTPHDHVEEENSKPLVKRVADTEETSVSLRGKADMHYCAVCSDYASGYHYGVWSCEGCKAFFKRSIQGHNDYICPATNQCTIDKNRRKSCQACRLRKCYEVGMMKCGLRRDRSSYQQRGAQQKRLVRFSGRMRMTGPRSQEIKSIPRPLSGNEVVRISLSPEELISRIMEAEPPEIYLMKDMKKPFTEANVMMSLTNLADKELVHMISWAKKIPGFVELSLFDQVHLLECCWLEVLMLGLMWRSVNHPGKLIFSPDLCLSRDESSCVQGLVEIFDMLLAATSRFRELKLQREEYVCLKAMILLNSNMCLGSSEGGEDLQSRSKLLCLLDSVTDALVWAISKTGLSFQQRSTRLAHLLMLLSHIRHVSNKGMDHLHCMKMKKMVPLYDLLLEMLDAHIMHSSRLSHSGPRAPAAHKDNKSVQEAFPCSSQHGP

Structure (SMILES) | EC50 [1] [nM] | EC50 [2] [nM] | EC50 [3] [nM] | EC50 ([1]; read-out: zfERβ2, agonist mode, 16 h, 28°C) [nM] | EC50 ([2]; read-out: zfERβ1, agonist mode, 16 h, 28°C) [nM] | EC50 ([3]; read-out: zfERα, agonist mode, 16 h, 28°C) [nM]
C[C@]12CC[C@@H]3c4ccc(O)cc4CC[C@H]3[C@@H]1C[C@H]1OC(=O)C[C@]12O [16α-LE2, 3,17-Dihydroxy-19-nor-17α-pregna-1,3,5(10)-triene-21,16α-lactone] | 69.5 ± 17.5 | 271 ± 45 | 0.65 ± 0.1 |  |  | 
Oc1ccc(C(c2ccc(O)cc2)(C(F)(F)F)C(F)(F)F)cc1 [BPAF] |  |  |  | 897 ± 268 | 758 ± 131 | 84 ± 27
CC(C)(c1ccc(O)cc1)c1ccc(O)cc1 [BPA] | 2800 ± 562 | 3330 ± 381 | 469 ± 42 |  |  | 
